For the test, the target named is T1, HA1 (Influenza A virus (A/Puerto Rico/8/1934(H1N1)), UniProt P03452).
T1 construct: gene HA; HA1 subunit alone, cut from precursor HA0; purchased from Sino Biological; immobilised on sensor chip
The test is described as follows: biochemical. The format is binding.

From PMC10003360, “Antiviral Effect of Ginsenosides rk1 against Influenza a Virus Infection by Targeting the Hemagglutinin 1-Mediated Virus Attachment” (International Journal of Molecular Sciences, 2023) come the findings set out here.

Molecules are shown by their SMILES.

T1 sequence (P03452 18-342 limits assumed): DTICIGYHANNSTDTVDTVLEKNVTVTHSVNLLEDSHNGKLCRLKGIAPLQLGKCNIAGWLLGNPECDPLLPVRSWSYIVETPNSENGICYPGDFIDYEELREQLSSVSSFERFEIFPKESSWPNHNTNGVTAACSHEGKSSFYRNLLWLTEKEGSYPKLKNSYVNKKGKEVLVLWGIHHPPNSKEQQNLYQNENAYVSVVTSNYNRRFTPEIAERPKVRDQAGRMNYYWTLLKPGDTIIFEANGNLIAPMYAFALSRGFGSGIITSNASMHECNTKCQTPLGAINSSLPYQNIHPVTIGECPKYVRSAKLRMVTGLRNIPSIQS

The term Kd denotes the free concentration of one partner at which half of the binding sites on the other are occupied at equilibrium, for simple one-to-one binding. Low values mean tighter binding, high ones weaker binding. As for `C=C(CCC=C(C)C)[C@H]1CC[C@]2(C)[C@@H]1[C@H](O)C[C@@H]1[C@@]3(C)CC[C@H](O[C@@H]4O[C@H](CO)[C@@H](O)[C@H](O)[C@H]4O[C@@H]4O[C@H](CO)[C@@H](O)[C@H](O)[C@H]4O)C(C)(C)[C@@H]3CC[C@]12C` [G-rk1, ginsenoside rk1], binding was characterised by a dissociation constant (Kd) of 93.3 nM.
